Laboratory results taken from US8383547B2 (priority 2005, dated 2013).

Experiments:
[1] = test system: dipeptidyl aminopeptidase II (DPP II); conditions: stated as known; cited from earlier work
[2] = test system: Aspergillus parasiticus NRRL2999; type: cell-based
[3] = test system: Aspergillus parasiticus NRRL2999; type: cell-based; remark: listed apart in the source
[4] = test system: aflatoxin-producing microorganism; conditions: Non-Patent Literature 3; cited from earlier work

| Compound | DPPII inhibition (known) [1] | Inhibition of aflatoxin production [2] | Inhibition of growth of aflatoxin-producing microorganism [3] | Aflatoxin production inhibitory activity [4] |
| --- | --- | --- | --- | --- |
| dioctatin | inhibition of dipeptidyl aminopeptidase II |  |  |  |
| NCC[C@H](N)C(=O)N1CCCCC1 [Dab-Pip] | strong inhibitor | neither Orn-Pip nor Dab-Pip inhibited aflatoxin production | not observed |  |
| NCCCC(N)C(=O)N1CCCCC1 (stereo not drawn) [Orn-Pip] | strong inhibitor | neither Orn-Pip nor Dab-Pip inhibited aflatoxin production | not observed |  |
| Cc1cccc2sc3nncn3c12 [tricyclazole] |  |  |  | weak |
| COP(=O)(OC)OC=C(Cl)Cl [dichlorvos] |  |  |  | weak |
